# ChEMBL document CHEMBL3045885, “Evaluation of antileishmanial activities of triglycerides isolated from roots of Moringa stenopetala” (Med Chem Res, 2013)
# What was measured:
# [1] = test system: Leishmania aethiopica; test: Antileishmanial activity against promastigote form of Leishmania aethiopica MHOM/ET/82/117-82 […] after 72 hr; type: functional, organism-based; details: MHOM/ET/82/117-82, 72 h
# [2] = test system: Leishmania aethiopica; test: Antileishmanial activity against amastigote form of Leishmania aethiopica MHOM/ET/82/117-82 infected in BALB/c mouse peritoneal exudate macrophages after 5 days; type: functional, organism-based; details: MHOM/ET/82/117-82, 120 h
SMILES,IC50 [1],IC50 [2]
CCCCC/C=C\C/C=C\CCCCCCCC(=O)OCC(COC(=O)CCCCCCC/C=C\C/C=C\CCCCC)OC(=O)CCCCCCC/C=C\CCCCCCCC,0.079 µg/mL,40 µg/mL
CCCCC/C=C\C/C=C\CCCCCCCC(=O)OC(COC(=O)CCCCCCC/C=C\CCCCCCCC)COC(=O)CCCCCCC/C=C\CCCCCCCC,242 µg/mL,26.8 µg/mL
CCCCCCCCCCCCCCCCOP(=O)([O-])OCC[N+](C)(C)C [MILTEFOSINE],0.136 µg/mL,0.121 µg/mL
C[C@@H]1[C@H](O)[C@@H](C)/C=C/C=C/C=C/C=C/C=C/C=C/C=C/[C@H](O[C@@H]2O[C@H](C)[C@@H](O)[C@H](N)[C@@H]2O)C[C@@H]2O[C@](O)(C[C@@H](O)C[C@@H](O)[C@H](O)CC[C@@H](O)C[C@@H](O)CC(=O)O[C@H]1C)C[C@H](O)[C@H]2C(=O)O [AMPHOTERICIN B],0.004 µg/mL,0.032 µg/mL
